Experimental data published in ChEMBL document CHEMBL1201862, “PubChem BioAssay data set” (2004).
Blank lines part the entries; values can stand above or below the compound they belong to. The source made the active and inactive calls.

Key:
[1] = target: Sphingosine 1-phosphate receptor 1 (Homo sapiens, UniProt P21453); type: functional;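 also: Tango beta-arrestin reporter U2OS cells stimulated with S1P near its EC80; inhibitor potency meaning antagonism of receptor activation by the natural agonist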
Sequence of Sphingosine 1-phosphate receptor 1 (P21453 whole entry): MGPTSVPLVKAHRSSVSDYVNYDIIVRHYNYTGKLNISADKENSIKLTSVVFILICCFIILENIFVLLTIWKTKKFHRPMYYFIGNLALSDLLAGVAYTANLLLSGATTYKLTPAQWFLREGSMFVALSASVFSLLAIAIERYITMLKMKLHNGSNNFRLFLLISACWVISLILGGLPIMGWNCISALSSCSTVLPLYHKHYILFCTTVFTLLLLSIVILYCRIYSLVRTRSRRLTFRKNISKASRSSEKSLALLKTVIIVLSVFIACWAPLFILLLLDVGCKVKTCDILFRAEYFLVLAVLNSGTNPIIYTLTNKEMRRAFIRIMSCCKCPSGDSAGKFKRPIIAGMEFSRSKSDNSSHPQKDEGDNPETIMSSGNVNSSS

[2] = target: T1, Sphingosine 1-phosphate receptor 4 (Homo sapiens, UniProt O95977); experiment: Late stage fluorescence dose response cell-based screening assay for antagonists of the Sphingosine 1-Phosphate Receptor 4 (S1P4). [Related pubchem assays: 1524 (Confirmation screen (S1P4 antagonists).), 1510 (Primary screen (S1P4 antagonists).), 1853 (Summary AID (S1P4 antagonists).), 1692 (Dose response screen (S1P4 antagonists).)]; type: functional
T1 sequence (O95977 whole entry): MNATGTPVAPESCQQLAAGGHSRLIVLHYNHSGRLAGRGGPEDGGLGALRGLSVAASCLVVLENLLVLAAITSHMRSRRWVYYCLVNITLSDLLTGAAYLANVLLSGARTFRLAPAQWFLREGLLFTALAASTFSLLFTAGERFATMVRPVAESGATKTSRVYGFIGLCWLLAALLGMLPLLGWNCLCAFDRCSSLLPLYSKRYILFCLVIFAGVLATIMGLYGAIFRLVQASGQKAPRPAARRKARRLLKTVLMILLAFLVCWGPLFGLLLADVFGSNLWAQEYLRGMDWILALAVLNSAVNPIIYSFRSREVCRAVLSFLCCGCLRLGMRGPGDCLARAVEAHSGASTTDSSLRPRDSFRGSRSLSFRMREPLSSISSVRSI

[3] = target: Female germline-specific tumor suppressor gld-1 (Caenorhabditis elegans, UniProt Q17339); experiment: inhibitors of GLD-1 binding to TGE RNA, dose response, biochemical, fluorescence polarization, C. elegans (AID 2802);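 also: fluorescence polarization of labeled TGE RNA bound by purified gld-1 protein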
Sequence of Female germline-specific tumor suppressor gld-1 (Q17339 whole entry): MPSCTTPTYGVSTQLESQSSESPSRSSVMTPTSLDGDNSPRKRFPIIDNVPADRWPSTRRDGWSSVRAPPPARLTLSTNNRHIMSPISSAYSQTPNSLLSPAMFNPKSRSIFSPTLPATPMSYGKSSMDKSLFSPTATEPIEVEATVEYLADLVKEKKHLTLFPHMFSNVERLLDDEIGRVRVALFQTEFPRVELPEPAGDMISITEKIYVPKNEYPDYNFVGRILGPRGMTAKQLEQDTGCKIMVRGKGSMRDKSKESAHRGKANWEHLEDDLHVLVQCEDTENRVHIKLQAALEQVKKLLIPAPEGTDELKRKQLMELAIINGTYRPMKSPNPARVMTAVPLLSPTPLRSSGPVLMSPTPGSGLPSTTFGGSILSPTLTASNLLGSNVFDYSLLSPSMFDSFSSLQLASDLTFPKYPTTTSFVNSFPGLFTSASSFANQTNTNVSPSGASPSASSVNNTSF

[4] = non-specific cell cytotoxicity, dose response, cytotoxicity control for PAX8 inhibitor project, plate reader, dry powder samples (AID 743021); type: functional, cell-based
[5] = target: Mitogen-activated protein kinase 10 (Homo sapiens, UniProt P53779); experiment: Navigating the Kinome. Panel member name: MAPK10; type: functional
Sequence of Mitogen-activated protein kinase 10 (P53779 whole entry): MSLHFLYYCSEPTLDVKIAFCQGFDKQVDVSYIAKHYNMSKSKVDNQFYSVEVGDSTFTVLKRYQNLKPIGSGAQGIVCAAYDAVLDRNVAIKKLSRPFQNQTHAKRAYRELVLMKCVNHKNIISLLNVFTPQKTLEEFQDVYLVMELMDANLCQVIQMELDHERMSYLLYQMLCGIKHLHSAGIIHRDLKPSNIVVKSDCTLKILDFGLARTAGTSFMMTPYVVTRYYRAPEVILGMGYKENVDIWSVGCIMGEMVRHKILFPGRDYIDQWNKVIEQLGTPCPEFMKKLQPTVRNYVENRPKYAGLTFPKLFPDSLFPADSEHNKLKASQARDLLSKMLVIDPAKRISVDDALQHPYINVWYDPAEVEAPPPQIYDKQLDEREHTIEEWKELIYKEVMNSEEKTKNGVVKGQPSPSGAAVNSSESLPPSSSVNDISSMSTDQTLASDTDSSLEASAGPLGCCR

[6] = target: Ribosomal protein S6 kinase alpha-3 (Homo sapiens, UniProt P51812); type: functional;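 also: measured within a kinome-wide profiling panel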
Sequence of Ribosomal protein S6 kinase alpha-3 (P51812 whole entry): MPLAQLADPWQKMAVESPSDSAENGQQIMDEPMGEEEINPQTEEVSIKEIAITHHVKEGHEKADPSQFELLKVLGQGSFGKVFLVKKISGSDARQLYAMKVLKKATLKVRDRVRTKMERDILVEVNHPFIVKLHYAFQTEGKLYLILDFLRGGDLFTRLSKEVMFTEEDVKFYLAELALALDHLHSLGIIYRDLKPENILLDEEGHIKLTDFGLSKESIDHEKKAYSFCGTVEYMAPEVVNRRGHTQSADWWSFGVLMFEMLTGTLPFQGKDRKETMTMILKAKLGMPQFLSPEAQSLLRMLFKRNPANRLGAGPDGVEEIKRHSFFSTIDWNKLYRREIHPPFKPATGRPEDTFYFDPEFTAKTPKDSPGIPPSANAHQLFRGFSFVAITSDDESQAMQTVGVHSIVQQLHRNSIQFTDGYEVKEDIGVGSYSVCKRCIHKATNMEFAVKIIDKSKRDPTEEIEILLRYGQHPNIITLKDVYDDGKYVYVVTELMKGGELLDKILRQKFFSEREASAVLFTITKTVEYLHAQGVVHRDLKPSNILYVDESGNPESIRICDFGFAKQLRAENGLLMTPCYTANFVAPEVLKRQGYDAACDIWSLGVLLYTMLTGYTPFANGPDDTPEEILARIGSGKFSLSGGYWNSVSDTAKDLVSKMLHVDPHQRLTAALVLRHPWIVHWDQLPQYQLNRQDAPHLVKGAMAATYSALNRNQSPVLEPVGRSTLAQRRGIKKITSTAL

[7] = target: Vascular endothelial growth factor receptor 3 (Homo sapiens, UniProt P35916); type: functional;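 also: value from a kinome-wide profiling panel, with FLT4 as the panel member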
Sequence of Vascular endothelial growth factor receptor 3 (P35916 whole entry): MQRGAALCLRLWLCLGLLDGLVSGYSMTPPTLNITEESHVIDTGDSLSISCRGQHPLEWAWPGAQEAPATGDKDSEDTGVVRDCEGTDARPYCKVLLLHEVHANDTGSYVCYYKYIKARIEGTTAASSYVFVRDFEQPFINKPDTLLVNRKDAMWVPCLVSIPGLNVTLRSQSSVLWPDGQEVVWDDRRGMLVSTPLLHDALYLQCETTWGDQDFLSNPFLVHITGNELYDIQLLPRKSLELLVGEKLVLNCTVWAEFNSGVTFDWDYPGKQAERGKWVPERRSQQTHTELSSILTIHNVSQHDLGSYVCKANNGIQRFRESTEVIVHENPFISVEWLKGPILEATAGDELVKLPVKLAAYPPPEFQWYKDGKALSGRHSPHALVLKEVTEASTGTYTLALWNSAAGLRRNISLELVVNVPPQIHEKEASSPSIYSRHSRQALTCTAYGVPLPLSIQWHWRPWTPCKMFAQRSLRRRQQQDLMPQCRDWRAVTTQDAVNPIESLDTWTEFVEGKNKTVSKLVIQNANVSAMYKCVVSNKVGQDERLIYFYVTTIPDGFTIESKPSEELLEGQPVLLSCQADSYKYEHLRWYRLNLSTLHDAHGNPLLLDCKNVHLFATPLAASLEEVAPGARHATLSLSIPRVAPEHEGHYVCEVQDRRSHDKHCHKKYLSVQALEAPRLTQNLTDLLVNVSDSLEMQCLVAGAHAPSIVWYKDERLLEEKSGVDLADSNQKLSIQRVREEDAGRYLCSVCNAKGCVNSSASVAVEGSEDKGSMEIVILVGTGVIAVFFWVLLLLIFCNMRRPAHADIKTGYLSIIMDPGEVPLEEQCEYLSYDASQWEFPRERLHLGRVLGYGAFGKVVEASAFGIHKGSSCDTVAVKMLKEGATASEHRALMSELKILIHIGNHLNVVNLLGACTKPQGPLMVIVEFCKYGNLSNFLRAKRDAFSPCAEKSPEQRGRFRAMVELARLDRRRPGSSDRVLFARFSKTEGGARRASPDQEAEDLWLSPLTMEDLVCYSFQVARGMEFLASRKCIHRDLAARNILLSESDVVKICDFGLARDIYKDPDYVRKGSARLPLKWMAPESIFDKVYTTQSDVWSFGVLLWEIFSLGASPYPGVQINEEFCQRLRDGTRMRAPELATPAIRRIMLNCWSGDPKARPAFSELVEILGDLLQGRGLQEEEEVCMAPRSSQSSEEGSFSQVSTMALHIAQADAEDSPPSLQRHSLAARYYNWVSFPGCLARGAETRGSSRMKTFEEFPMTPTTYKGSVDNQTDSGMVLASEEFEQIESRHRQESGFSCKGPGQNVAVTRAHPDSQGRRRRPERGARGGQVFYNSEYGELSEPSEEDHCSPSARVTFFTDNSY

[8] = target: Kappa-type opioid receptor (Homo sapiens, UniProt P41145); type: functional
Sequence of Kappa-type opioid receptor (P41145 whole entry): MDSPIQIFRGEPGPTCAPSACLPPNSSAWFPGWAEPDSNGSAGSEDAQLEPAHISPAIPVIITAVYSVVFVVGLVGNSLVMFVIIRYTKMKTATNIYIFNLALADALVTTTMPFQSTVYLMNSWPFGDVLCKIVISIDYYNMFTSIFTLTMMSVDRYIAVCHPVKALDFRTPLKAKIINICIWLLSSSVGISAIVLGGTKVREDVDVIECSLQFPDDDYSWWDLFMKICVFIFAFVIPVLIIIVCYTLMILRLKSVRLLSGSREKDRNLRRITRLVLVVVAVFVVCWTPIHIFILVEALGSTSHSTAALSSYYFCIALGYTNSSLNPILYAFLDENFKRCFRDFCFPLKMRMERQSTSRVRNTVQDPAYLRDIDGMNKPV

Beta-galactosidase = Beta-galactosidase (Escherichia coli, UniProt Q8VNN2); experiment: beta-galactosidase enzyme inhibitors and activators, dose response, artefact control for CCR6 antagonist project, biochemical, E. coli enzyme, set 3 (AID 504712); type: functional
Sequence of Beta-galactosidase (Q8VNN2 whole entry): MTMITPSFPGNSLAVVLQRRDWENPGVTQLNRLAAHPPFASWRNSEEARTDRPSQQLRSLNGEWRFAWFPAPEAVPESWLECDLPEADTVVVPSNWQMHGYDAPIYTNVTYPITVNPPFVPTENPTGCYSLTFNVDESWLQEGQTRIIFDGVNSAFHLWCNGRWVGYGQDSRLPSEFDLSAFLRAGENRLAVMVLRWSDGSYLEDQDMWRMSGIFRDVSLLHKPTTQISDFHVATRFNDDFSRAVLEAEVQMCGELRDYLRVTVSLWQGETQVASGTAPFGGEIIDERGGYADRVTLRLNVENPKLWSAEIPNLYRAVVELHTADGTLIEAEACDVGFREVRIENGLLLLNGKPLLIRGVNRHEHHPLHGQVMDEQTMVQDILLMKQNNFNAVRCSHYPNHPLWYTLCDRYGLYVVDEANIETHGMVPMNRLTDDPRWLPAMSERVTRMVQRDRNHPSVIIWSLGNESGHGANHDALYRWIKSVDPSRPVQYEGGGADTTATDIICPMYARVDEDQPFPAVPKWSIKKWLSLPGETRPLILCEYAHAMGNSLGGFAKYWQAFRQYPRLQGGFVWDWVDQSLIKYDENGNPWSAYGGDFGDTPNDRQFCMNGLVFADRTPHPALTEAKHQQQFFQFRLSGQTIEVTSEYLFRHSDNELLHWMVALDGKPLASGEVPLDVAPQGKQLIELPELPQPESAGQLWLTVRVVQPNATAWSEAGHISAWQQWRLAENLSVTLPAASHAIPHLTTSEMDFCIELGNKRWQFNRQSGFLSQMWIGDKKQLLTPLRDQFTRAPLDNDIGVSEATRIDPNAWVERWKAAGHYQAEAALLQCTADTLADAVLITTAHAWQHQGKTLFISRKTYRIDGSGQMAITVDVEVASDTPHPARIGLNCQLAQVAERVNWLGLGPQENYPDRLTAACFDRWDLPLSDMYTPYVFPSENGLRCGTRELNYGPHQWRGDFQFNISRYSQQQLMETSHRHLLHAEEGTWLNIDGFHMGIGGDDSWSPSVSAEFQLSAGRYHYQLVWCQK

Compound: COC(=O)CCS(=O)(=O)c1nc(-c2ccccc2)cc(C(F)(F)F)n1
IC50 [1]: 28.4 µM (not active)
IC50 [2]: 3.45 µM (not active)

Compound: O=C(O)c1ccc2c3c(ncnc13)-c1ccccc1C2=O
IC50 [3]: 3.51 µM (active)

Compound: CCOC(=O)c1c2c(n(Cc3ccccc3)c1C)C(=O)C(=O)c1ccccc1-2
AC50 [4]: 15.7 µM (active)

Ki [5]: > 3.16 µM (inactive)
Ki [6]: > 5.01 µM (inactive)
Ki [7]: 1 µM (active)
Compound: Cc1ccc2nccc(NC(=O)Nc3cccc(C(F)(F)F)n3)c2c1

Compound: Cc1c(/N=C2\C=CC(=O)c3ccccc32)c(=O)n(-c2ccccc2)n1C
IC50 [8]: > 32 µM
IC50 (Beta-galactosidase): > 66.6 µM (inactive)
